# Experimental data: patent US20200354426A1 (MEDIMMUNE LIMITED, priority 2016, published 2020)
# pEC50: −log10 of the molar value. Numbered stars: 1 amine (or outer) side, 2 acyl side, 3 side chain; on linkers, the order of the positions; unused ones are H or OH. Side chains are listed from the residue outwards. Peptide text beside a SMILES is read from it. * marks the point of attachment. γGlu = O=C(O)[C@H](CCC(=O)[*:2])N[*:1]; Palmitoyl = CCCCCCCCCCCCCCCC(=O)*; Ahx = NCCCCCC(=O)O
# How the values were obtained:
# Assay in all cases: cAMP activity assay in assay medium (assay 1)
# Type in all cases: cell-based
# [1] = molecular target: Human GLP1R (Homo sapiens, UniProt P43220); set-up: expressed in transfected cells; settings: assay medium; Table 4; read-out: hGLP1R EC50
# Human GLP1R, sequence (P43220 24-463): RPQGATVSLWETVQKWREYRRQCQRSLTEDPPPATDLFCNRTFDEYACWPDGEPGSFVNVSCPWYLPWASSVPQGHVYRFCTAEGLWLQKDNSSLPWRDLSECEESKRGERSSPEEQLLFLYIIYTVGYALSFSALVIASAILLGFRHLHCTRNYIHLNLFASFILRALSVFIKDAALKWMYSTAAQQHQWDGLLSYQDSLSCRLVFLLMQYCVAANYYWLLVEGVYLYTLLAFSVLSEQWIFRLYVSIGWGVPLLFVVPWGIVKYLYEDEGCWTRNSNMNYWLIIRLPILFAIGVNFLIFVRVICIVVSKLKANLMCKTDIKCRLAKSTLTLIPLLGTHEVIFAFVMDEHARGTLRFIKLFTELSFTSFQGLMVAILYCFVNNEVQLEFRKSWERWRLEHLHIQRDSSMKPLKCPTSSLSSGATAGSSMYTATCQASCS
# Excerpt: (§1) Biological Activity of Peptides in Cell-Based cAMP Activity Assay (Assay 1):
# (§2) All sample dilutions were made in duplicate.
# [2] = molecular target: T1, Human GlucR (Homo sapiens, UniProt P47871); settings: assay medium; Table 4; read-out: hGlucR EC50
# T1 construct: expressed in transfected cells
# T1 sequence (P47871 26-477): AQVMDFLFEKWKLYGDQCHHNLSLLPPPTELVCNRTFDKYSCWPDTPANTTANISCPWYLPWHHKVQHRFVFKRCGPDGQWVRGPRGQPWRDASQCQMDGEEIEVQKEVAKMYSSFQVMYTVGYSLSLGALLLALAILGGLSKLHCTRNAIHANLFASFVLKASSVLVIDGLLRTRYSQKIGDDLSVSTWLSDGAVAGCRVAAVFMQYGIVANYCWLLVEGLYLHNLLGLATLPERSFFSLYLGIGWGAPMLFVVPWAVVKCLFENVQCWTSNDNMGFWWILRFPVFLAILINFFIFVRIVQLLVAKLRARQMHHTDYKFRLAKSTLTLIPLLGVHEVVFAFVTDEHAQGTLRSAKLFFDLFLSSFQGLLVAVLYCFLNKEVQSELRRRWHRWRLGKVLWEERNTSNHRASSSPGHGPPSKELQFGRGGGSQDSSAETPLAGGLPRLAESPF
# Excerpt: as §1, §2
# [3] = molecular target: T2, Human GIPr (Homo sapiens, UniProt P48546); settings: assay medium; Table 4; read-out: hGIPR EC50
# T2 construct: expressed in transfected cells
# T2 sequence (P48546 22-466): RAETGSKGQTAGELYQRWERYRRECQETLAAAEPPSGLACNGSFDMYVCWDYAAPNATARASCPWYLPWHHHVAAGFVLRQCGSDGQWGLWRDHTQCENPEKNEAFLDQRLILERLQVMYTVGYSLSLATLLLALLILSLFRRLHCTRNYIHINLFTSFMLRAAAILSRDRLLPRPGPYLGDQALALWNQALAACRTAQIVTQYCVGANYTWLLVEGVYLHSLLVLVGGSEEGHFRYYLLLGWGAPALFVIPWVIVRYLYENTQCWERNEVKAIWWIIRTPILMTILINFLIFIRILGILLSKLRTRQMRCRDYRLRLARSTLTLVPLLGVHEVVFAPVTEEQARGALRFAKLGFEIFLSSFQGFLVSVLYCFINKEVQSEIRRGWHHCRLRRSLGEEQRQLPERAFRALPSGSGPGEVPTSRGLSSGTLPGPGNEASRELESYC
# Excerpt: as §1, §2
SMILES,pEC50 [1],pEC50 [2],pEC50 [3]
CCCCCCCCCCCCCCCC(=O)N[C@@H](CCC(=O)NCCCC[C@H](NC(=O)[C@H](Cc1ccc(O)cc1)NC(=O)[C@H](CCCCN)NC(=O)[C@H](CO)NC(=O)[C@H](Cc1ccc(O)cc1)NC(=O)[C@H](CC(=O)O)NC(=O)[C@H](CO)NC(=O)[C@@H](NC(=O)[C@H](Cc1ccccc1)NC(=O)[C@@H](NC(=O)CNC(=O)[C@H](CCC(N)=O)NC(=O)[C@H](CO)NC(=O)[C@@H](N)Cc1c[nH]cn1)[C@@H](C)O)[C@@H](C)O)C(=O)N[C@@H](CC(=O)O)C(=O)N[C@@H](CO)C(=O)N[C@@H](CCC(=O)O)C(=O)N[C@@H](CCCNC(=N)N)C(=O)N[C@@H](C)C(=O)N[C@@H](CCCNC(=N)N)C(=O)N[C@@H](CC(=O)O)C(=O)N[C@@H](Cc1ccccc1)C(=O)N[C@H](C(=O)N[C@@H](CCC(=O)O)C(=O)N[C@@H](Cc1c[nH]c2ccccc12)C(=O)N[C@@H](CC(C)C)C(=O)N[C@@H](CCC(=O)O)C(=O)N[C@@H](C)C(=O)NCC(=O)NCC(N)=O)C(C)C)C(=O)O [g836] (H-HSQGTFTSDYSKYK([γGlu-Palmitoyl])DSERARDFVEWLEAGG-NH2; N-terminus assumed),9.91,10.81,7.00
CCCCCCCCCCCCCCCC(=O)N[C@@H](CCC(=O)NCCCC[C@H](NC(=O)[C@H](CO)NC(=O)[C@H](CC(=O)O)NC(=O)[C@H](CC(C)C)NC(=O)[C@H](Cc1ccc(O)cc1)NC(=O)[C@H](CCC(=O)O)NC(=O)[C@H](CO)NC(=O)[C@H](Cc1ccc(O)cc1)NC(=O)[C@H](CC(=O)O)NC(=O)[C@H](CO)NC(=O)[C@@H](NC(=O)[C@H](Cc1ccccc1)NC(=O)[C@@H](NC(=O)CNC(=O)[C@H](CCC(N)=O)NC(=O)[C@H](CO)NC(=O)[C@@H](N)Cc1c[nH]cn1)[C@@H](C)O)[C@@H](C)O)C(=O)N[C@@H](CCCNC(=N)N)C(=O)N[C@@H](C)C(=O)N[C@@H](CCCNC(=N)N)C(=O)N[C@@H](CC(=O)O)C(=O)N[C@@H](Cc1ccccc1)C(=O)N[C@H](C(=O)N[C@@H](C)C(=O)N[C@@H](Cc1c[nH]c2ccccc12)C(=O)N[C@@H](CC(C)C)C(=O)N[C@@H](CCC(=O)O)C(=O)N[C@@H](C)C(=O)NCC(=O)NCC(N)=O)C(C)C)C(=O)O [g837] (H-HSQGTFTSDYSEYLDSK([γGlu-Palmitoyl])RARDFVAWLEAGG-NH2; N-terminus assumed),9.33,9.67,6.94
CCCCCCCCCCCCCCCC(=O)N[C@@H](CCC(=O)NCCCC[C@H](NC(=O)[C@H](CCCNC(=N)N)NC(=O)[C@H](CO)NC(=O)[C@H](Cc1ccc(O)cc1)NC(=O)[C@H](CC(=O)O)NC(=O)[C@H](CO)NC(=O)[C@@H](NC(=O)[C@H](Cc1ccccc1)NC(=O)[C@@H](NC(=O)CNC(=O)[C@H](CCC(N)=O)NC(=O)[C@H](CO)NC(=O)[C@@H](N)Cc1c[nH]cn1)[C@@H](C)O)[C@@H](C)O)C(=O)N[C@@H](CC(C)C)C(=O)N[C@@H](CC(=O)O)C(=O)N[C@@H](CO)C(=O)N[C@@H](CCC(=O)O)C(=O)N[C@@H](CCCNC(=N)N)C(=O)N[C@@H](C)C(=O)N[C@@H](CCCNC(=N)N)C(=O)N[C@@H](CC(=O)O)C(=O)N[C@@H](Cc1ccccc1)C(=O)N[C@H](C(=O)N[C@@H](C)C(=O)N[C@@H](Cc1c[nH]c2ccccc12)C(=O)N[C@@H](CC(C)C)C(=O)N[C@H](C(=O)N[C@@H](C)C(=O)NCC(=O)NCC(=O)O)C(C)C)C(C)C)C(=O)O [g842] (H-HSQGTFTSDYSRK([γGlu-Palmitoyl])LDSERARDFVAWLVAGG-OH; N-terminus assumed),10.29,11.08,7.05
CCCCCCCCCCCCCCCC(=O)N[C@@H](CCC(=O)NCCCC[C@H](NC(=O)[C@H](CO)NC(=O)[C@H](CC(=O)O)NC(=O)[C@H](CC(C)C)NC(=O)[C@H](Cc1ccc(O)cc1)NC(=O)[C@H](CCCCN)NC(=O)[C@H](CO)NC(=O)[C@H](Cc1ccc(O)cc1)NC(=O)[C@H](CC(=O)O)NC(=O)[C@H](CO)NC(=O)[C@@H](NC(=O)[C@H](Cc1ccccc1)NC(=O)[C@@H](NC(=O)CNC(=O)[C@H](CCC(N)=O)NC(=O)[C@H](CO)NC(=O)[C@@H](N)Cc1c[nH]cn1)[C@@H](C)O)[C@@H](C)O)C(=O)N[C@@H](CCCNC(=N)N)C(=O)N[C@@H](C)C(=O)N[C@@H](CCCNC(=N)N)C(=O)N[C@@H](CC(=O)O)C(=O)N[C@@H](Cc1ccccc1)C(=O)N[C@H](C(=O)N[C@@H](C)C(=O)N[C@@H](Cc1c[nH]c2ccccc12)C(=O)N[C@@H](CC(C)C)C(=O)N[C@H](C(=O)N[C@@H](C)C(=O)NCC(=O)NCC(N)=O)C(C)C)C(C)C)C(=O)O [g867] (H-HSQGTFTSDYSKYLDSK([γGlu-Palmitoyl])RARDFVAWLVAGG-NH2; N-terminus assumed),10.35,11.15,7.38

# More lines, now with the values ahead:
pEC50 [1],pEC50 [2],pEC50 [3],SMILES
10.63,11.25,7.07,CCCCCCCCCCCCCCCC(=O)NCCCCCC(=O)NCCCC[C@H](NC(=O)[C@H](CO)NC(=O)[C@H](CC(=O)O)NC(=O)[C@H](CC(C)C)NC(=O)[C@H](Cc1ccc(O)cc1)NC(=O)[C@H](CCC(=O)O)NC(=O)[C@H](CO)NC(=O)[C@H](Cc1ccc(O)cc1)NC(=O)[C@H](CC(=O)O)NC(=O)[C@H](CO)NC(=O)[C@@H](NC(=O)[C@H](Cc1ccccc1)NC(=O)[C@@H](NC(=O)CNC(=O)[C@H](CCC(N)=O)NC(=O)[C@H](CO)NC(=O)[C@@H](N)Cc1c[nH]cn1)[C@@H](C)O)[C@@H](C)O)C(=O)N[C@@H](CCCNC(=N)N)C(=O)N[C@@H](C)C(=O)N[C@@H](CCCNC(=N)N)C(=O)N[C@@H](CC(=O)O)C(=O)N[C@@H](Cc1ccccc1)C(=O)N[C@H](C(=O)N[C@@H](C)C(=O)N[C@@H](Cc1c[nH]c2ccccc12)C(=O)N[C@@H](CC(C)C)C(=O)N[C@@H](CCC(=O)O)C(=O)N[C@@H](C)C(=O)NCC(=O)NCC(N)=O)C(C)C [g838] (H-HSQGTFTSDYSEYLDSK([Ahx-Palmitoyl])RARDFVAWLEAGG-NH2; N-terminus assumed)
10.36,10.47,7.93,CCCCCCCCCCCCCCCC(=O)N[C@@H](CCC(=O)NCCCC[C@H](NC(=O)[C@H](Cc1ccc(O)cc1)NC(=O)[C@H](CCC(=O)O)NC(=O)[C@H](CO)NC(=O)[C@H](Cc1ccc(O)cc1)NC(=O)[C@H](CC(=O)O)NC(=O)[C@H](CO)NC(=O)[C@@H](NC(=O)[C@H](Cc1ccccc1)NC(=O)[C@@H](NC(=O)CNC(=O)[C@H](CCC(N)=O)NC(=O)[C@H](CO)NC(=O)[C@@H](N)Cc1c[nH]cn1)[C@@H](C)O)[C@@H](C)O)C(=O)N[C@@H](CC(=O)O)C(=O)N[C@@H](CO)C(=O)N[C@@H](CCC(=O)O)C(=O)N[C@@H](CCCNC(=N)N)C(=O)N[C@@H](C)C(=O)N[C@@H](CCCNC(=N)N)C(=O)N[C@@H](CC(=O)O)C(=O)N[C@@H](Cc1ccccc1)C(=O)N[C@H](C(=O)N[C@@H](C)C(=O)N[C@@H](Cc1c[nH]c2ccccc12)C(=O)N[C@@H](CC(C)C)C(=O)N[C@H](C(=O)N[C@@H](C)C(=O)NCC(=O)NCC(N)=O)C(C)C)C(C)C)C(=O)O [g846] (H-HSQGTFTSDYSEYK([γGlu-Palmitoyl])DSERARDFVAWLVAGG-NH2; N-terminus assumed)
